The target of experiment [1] is T1, Dual specificity mitogen-activated protein kinase kinase 6 (Homo sapiens) (UniProt P52564).
T1 sequence (whole entry): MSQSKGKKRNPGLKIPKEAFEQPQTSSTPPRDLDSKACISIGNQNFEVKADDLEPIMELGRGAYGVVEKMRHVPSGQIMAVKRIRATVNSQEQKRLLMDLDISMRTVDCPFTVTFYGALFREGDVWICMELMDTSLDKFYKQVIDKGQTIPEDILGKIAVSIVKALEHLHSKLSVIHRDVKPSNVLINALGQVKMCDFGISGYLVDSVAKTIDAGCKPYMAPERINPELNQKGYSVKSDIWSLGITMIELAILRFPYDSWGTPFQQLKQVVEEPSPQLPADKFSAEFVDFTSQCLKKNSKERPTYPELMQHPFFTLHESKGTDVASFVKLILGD
The experiment can be described thus: Inhibition of MAP2K6 Lys1 labeling site in human A-375 cells at 5 uM by KiNativ Profiling analysis relative to control. The format is cell-based.

Experiment [2] has as its target T2, Mitogen-activated protein kinase kinase kinase 6 (Homo sapiens) (UniProt O95382).
T2 sequence (whole entry): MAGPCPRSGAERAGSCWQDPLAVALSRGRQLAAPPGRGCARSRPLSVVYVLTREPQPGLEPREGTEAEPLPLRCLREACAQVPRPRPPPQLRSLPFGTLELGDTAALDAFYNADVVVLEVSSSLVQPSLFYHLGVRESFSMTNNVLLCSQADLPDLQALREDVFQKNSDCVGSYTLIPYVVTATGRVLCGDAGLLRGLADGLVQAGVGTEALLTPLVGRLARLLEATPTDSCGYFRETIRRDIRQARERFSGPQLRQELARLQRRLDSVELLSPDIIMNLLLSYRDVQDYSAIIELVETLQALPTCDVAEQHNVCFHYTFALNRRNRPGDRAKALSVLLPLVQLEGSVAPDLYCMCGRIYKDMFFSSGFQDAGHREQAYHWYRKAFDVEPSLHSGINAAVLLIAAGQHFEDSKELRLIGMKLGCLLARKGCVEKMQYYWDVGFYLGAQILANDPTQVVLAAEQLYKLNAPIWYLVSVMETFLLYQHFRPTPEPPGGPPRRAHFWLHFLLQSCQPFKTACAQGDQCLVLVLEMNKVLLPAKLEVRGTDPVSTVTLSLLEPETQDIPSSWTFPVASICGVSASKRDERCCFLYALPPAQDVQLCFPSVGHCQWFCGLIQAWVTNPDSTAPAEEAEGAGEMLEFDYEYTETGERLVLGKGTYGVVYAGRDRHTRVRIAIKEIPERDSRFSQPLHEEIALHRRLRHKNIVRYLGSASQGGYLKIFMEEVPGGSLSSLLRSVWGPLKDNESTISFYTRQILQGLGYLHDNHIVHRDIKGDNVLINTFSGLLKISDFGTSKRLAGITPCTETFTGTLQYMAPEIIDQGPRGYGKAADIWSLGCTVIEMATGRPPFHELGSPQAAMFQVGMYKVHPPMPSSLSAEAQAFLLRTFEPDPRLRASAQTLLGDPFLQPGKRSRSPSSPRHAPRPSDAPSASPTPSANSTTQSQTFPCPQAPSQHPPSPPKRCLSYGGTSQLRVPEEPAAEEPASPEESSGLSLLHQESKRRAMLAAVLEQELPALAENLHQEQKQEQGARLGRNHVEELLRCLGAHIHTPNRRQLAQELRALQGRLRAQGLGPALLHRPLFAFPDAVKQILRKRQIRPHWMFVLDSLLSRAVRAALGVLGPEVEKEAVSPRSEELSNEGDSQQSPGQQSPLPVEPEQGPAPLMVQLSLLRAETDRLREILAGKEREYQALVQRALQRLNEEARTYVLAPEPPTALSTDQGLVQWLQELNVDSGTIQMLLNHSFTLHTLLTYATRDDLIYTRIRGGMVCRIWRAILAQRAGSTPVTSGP
The experiment can be described thus: Inhibition of MAP3K6 Lys1 labeling site harbouring IAIKEIPER in human A-375 cells at 5 uM by KiNativ Profiling analysis relative to control. The format is cell-based.

Experiment [3] concerns the target T3, Serine/threonine-protein kinase Nek1 (Homo sapiens) (UniProt Q96PY6).
T3 sequence (whole entry): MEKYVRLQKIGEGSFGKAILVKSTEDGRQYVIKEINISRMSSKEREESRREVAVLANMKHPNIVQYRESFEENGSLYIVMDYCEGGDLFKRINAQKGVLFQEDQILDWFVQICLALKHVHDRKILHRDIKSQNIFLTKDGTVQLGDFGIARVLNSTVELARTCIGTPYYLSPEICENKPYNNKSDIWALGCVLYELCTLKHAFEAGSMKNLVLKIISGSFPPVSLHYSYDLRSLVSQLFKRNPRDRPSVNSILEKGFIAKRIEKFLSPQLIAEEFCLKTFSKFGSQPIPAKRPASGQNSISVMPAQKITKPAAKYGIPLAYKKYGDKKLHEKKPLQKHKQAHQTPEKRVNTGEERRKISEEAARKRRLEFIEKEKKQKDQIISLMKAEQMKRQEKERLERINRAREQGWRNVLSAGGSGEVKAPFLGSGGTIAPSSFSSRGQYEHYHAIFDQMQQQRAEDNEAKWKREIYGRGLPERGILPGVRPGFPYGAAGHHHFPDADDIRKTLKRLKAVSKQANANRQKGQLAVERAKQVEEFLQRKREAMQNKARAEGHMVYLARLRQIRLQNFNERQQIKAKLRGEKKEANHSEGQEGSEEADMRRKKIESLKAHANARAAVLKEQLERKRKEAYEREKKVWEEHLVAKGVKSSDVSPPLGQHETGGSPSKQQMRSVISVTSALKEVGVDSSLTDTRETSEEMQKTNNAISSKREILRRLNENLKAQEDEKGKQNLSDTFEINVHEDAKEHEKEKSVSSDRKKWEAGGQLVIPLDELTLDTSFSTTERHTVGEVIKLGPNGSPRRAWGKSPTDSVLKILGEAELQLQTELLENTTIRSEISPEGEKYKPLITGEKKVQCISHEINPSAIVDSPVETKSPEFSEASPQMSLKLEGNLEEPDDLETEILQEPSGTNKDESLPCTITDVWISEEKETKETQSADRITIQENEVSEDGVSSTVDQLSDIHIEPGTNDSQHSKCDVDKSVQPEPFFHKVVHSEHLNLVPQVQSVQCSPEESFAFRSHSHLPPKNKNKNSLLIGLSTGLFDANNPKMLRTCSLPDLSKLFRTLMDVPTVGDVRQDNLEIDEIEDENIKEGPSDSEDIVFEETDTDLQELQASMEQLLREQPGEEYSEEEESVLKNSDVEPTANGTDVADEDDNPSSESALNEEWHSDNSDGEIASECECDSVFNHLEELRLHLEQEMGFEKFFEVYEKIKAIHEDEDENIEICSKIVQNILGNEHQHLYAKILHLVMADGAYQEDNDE
As to the kind of experiment: Inhibition of NEK1 K2 labeling site in human Huh-7 cells at 1 uM by KiNativ Profiling analysis relative to control. The format is cell-based.

In experiment [4] the target is DNA-PK/Ku70/Ku85 (Homo sapiens) (UniProt P78527+P12956+P13010). As to the kind of experiment: Inhibition of DNAPK ATP labeling site harbouring KGGSWIQEINVAEK in human Huh-7 cell lysate at 1 uM by KiNativ Profiling analysis relative to control. The format is subcellular.

In ChEMBL document CHEMBL5696442, “Discovery of type II inhibitors of TGFβ-activated kinase 1 (TAK1) and mitogen-activated protein kinase kinase kinase kinase 2 (MAP4K2)” (J Med Chem, 2015) one finds inhibition data, which are given here for three compounds.

Turning to `CCN1CCN(Cc2ccc(NC(=O)c3ccc(C)c(/C=C/c4cnc5[nH]ccc5c4OC)c3)cc2C(F)(F)F)CC1`, the inhibition (commonly the relative decrease from the control value, in per cent) in experiment [1] is -0.7%.
Consider `CCN1CCN(Cc2ccc(NC(=O)c3ccc(C)c(Oc4ccnc5[nH]ccc45)c3)cc2C(F)(F)F)CC1`, for which the inhibition in experiment [2] is -0.6%; in experiment [3], -5.8%.
Regarding `CNc1cc(Oc2cc(C(=O)Nc3cc(N4CCN(C)CC4)cc(C(F)(F)F)c3)ccc2C)ncn1`, the inhibition in experiment [4] is -5.7%.
